The source of these data is patent US7547804B2, “Compounds, compositions, and methods employing same” (Myriad Genetics, Inc., priority 2002, dated 2009).

A word on the EC50: it is the midpoint of the concentration-response curve.

The first experiment deals with LNCaP cell lines. Put plainly: WST-1 Cell Proliferation and Viability Assay. The class given is cell-based. Particulars: Homo sapiens; LNCaP cells, compound incubation 18-72 hours. The essentials:
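LNCaP cells (5000/well, phenol-red-free RPMI-1640 with 10% FCS) were plated overnight, then exposed to compounds in 0.1% DMSO final for 18-72 hours at 37 °C. Viability was read by WST-1 conversion to formazan after 3 h further incubation, measured at A490-A650.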
Background: Tetrazolium assays rely on reduction of a dye to a coloured formazan, in cell work by metabolically active cells.
Molecule `CC(C)c1cccc(-c2cccc(CNC(=O)c3cc(Cl)ccc3O)c2)c1` [Compound 175] registered an EC50 of 14 µM.
Turning to `O=C(Nc1ccccc1OC1CCCC[C@H]1c1ccccc1)c1cc(Cl)ccc1O` (stereo partly drawn) [Compound 126], the response was half-maximal at 6 µM (EC50).
Molecule `CN(CC(=O)O)c1ccc(NC(=O)c2cc(Cl)ccc2O)c(OCCc2cccc(C(F)(F)F)c2)c1` [Compound 375] yielded an EC50 of 19 µM.
As to `CCOCCOc1ccc(C(F)(F)F)cc1NC(=O)c1cc(Cl)ccc1O` [Compound 295], the EC50 is 1 µM.
`O=C(Nc1cccc(Cl)c1OCCc1cccc(C(F)(F)F)c1)c1cc(Cl)ccc1O` [Compound 158] gave an EC50 of 2 µM.
Still for that read-out and setting: then `O=C(Nc1cc(C(F)(F)F)ccc1OCCc1ccccc1C(F)(F)F)c1cc(Cl)ccc1O` [Compound 134], with 0.9 µM; and `CN1CCN(c2ccc(NC(=O)c3cc(Cl)ccc3O)c(OCCc3cccc(C(F)(F)F)c3)c2)CC1` [Compound 358], with 16.3 µM.
The molecule `Cc1ccc(COc2ccc(Cl)cc2NC(=O)c2cc(Cl)ccc2O)cc1` [Compound 306] showed an EC50 of 2 µM.
As to `Cc1ccc(NC(=O)c2cc(Cl)ccc2O)c(OCCc2ccccc2C(F)(F)F)c1` [Compound 171], a half-maximal response (EC50) required 5 µM.
The molecule `O=C(Nc1cc(Cl)ccc1OCCc1ccccc1F)c1cc(Cl)ccc1O` [Compound 107] returned an EC50 of 2 µM.
For `CCC(COc1ccc(Cl)cc1NC(=O)c1cc(Cl)ccc1O)c1ccccc1` (stereo not drawn) [Compound 103], the midpoint of the response, the EC50, lay at 2 µM.
On to `COc1cccc(CCOc2ccc(Cl)cc2NC(=O)c2cc(Cl)ccc2O)c1` [Compound 112], for which the EC50 was 2 µM.
On the same count and under the same terms, then `O=C(Nc1cc(Cl)cc(Cl)c1OCCc1ccccc1C(F)(F)F)c1cc(Cl)ccc1O` [Compound 172], with 3 µM; and `Cc1cc(C)c(CCOc2cccc(NC(=O)c3cc(Cl)ccc3O)c2)c(C)c1` [Compound 62], with 4 µM.
`Cc1cc(C)c(OCCc2cccc(C(F)(F)F)c2)c(NC(=O)c2cc(Cl)ccc2O)c1` [Compound 159] returned an EC50 of 2 µM.
For the molecule `O=C(Nc1cccc(Cl)c1OCCc1ccccc1)c1cc(Cl)ccc1O` [Compound 154], the EC50 is 4 µM.
On the same count and under the same terms, with `Cc1ccc(O)c(C(=O)NCc2cccc(-c3ccccc3)c2)c1` [Compound 206] the figure was 34 µM.

Still in this experiment, the particulars now being: Homo sapiens; LNCaP cells; flagged "Estimated": based on actual data at different concentrations.
Consider `Cc1ccc(CNC(=O)c2cc(Cl)ccc2O)cc1-c1ccccc1` [Compound 291], for which the EC50 is 30 µM.
In the case of `O=C(NCCc1ccccc1OCc1ccccc1)c1cc(Cl)ccc1O` [Compound 119], the concentration for a half-maximal effect (EC50) was 20 µM.
Consider `Cc1cc(C)cc(CNC(=O)c2cc(Cl)ccc2O)c1` [Compound 323], for which the EC50 was 30 µM.
For `O=C(NCc1cccc(-c2ccccc2)c1)c1ccccc1O` [Compound 199], the EC50 was 47 µM.
